{"source": "PubChem BioAssay AID743395", "about": "(Broad Institute, 2014)"}
{"test_system": "HepG2 viability, CellTiter-Glo ATP luminescence, 72 h", "assay": "viability loss in human hepatoma cells – cell-based, CellTiter-Glo luminescence, cherry-pick, set 2, cytotoxicity control, dose response (AID 743395)", "units": {"AC35": "µM"}}
{"smiles": "CC(=NNC(=S)Nc1ccc(C)cc1)c1ccccn1", "AC35": 0.123}
{"smiles": "O=C(Nc1cccc(F)c1)N1CCCCN2[C@@H](CO)[C@H](c3ccc(C#Cc4ccccc4)cc3)[C@@H]2C1", "AC35": 9.45}
{"smiles": "C=C1C(=O)O[C@@H]2C[C@@H](C)[C@@H]3C=CC(=O)[C@@]3(C)[C@@H](O)[C@H]12", "AC35": 2.99}
{"smiles": "CCN(CC)CCn1c2ccccc2c2nc3ccccc3nc21", "AC35": 19.9}
{"smiles": "Cc1ccc(S(=O)(=O)N2CCCCC2CCNC(=O)C(=O)NCc2ccccc2)cc1", "note": "(stereo not drawn)", "AC35": 12.5}
{"smiles": "O=C(Nc1ccc(Br)cn1)c1cccc2ccccc12", "AC35": 5.99}
{"smiles": "Cc1ccc(N(C)S(=O)(=O)c2ccc(-c3cnc(C4CC4)o3)cc2)cc1", "AC35": 8.88}
{"smiles": "COc1cc2c(C#CCCO)c(-c3ccsc3)oc(=O)c2cc1OC", "AC35": 21}
{"smiles": "NCC(=O)NNC(=O)OCC1c2ccccc2-c2ccccc21", "AC35": 12.7}
{"smiles": "C[C@H]1CN([C@@H](C)CO)S(=O)(=O)c2ccc(-c3ccc(C#N)cc3)cc2O[C@@H]1CN(C)Cc1ccccn1", "AC35": 5.26}
{"smiles": "O=C(Cc1ccccc1)N1CC(=O)N2[C@H](CO)[C@@H](c3ccc(-c4ccccc4)cc3)[C@@H]2C1", "AC35": 18.7}
{"smiles": "COc1cccc(/C=N/Nc2ncnc(Cl)c2N)c1O", "AC35": 2.15}
{"smiles": "COc1ccc(CN(C)C[C@H]2OCCCC[C@H](C)Oc3ccc(NC(=O)Nc4ccc(C(F)(F)F)cc4)cc3C(=O)N([C@H](C)CO)C[C@H]2C)cc1", "AC35": 10.1}
{"smiles": "Cc1cccc(Nc2nc(N)nc(-c3oc4ccccc4c3C)n2)c1", "AC35": 15.4}
{"smiles": "COc1cccc(-c2cnc3c(NC(C)=O)cc(-c4cc(F)ccc4OC)cn23)c1", "AC35": 12.5}
{"smiles": "CC(C)Oc1ncnc2c1[nH]c1ccccc12", "AC35": 8.5}
{"smiles": "COc1ccc(COc2cc(-c3cccc(OC)c3)nc3ccc(NC(=O)c4ccc(OC)cc4)cc23)cc1", "AC35": 7.56}
{"smiles": "Cc1ccc2cc(CN(CC3CCCO3)C(=S)Nc3ccccc3)c(=O)[nH]c2c1C", "note": "(stereo not drawn)", "AC35": 14.7}
{"smiles": "CC(=O)Oc1ccc(N2C(=O)c3cccc4c([N+](=O)[O-])ccc(c34)C2=O)cc1", "AC35": 16.7}
{"smiles": "COc1cc(C(=O)Nc2ccc3c(c2)CCN3C(C)=O)cc(OC)c1OC", "AC35": 3.94}
{"smiles": "Nc1c2ccccc2nc2ccccc12", "AC35": 2.63}
{"smiles": "COc1ccc(Nc2nc(-c3sc(C)nc3C)cs2)c(OC)c1", "AC35": 10}
{"smiles": "COc1ccc(Nc2nc3cc(-c4sccc4C)sc3c(=O)n2C)cc1OC", "AC35": 5.88}
{"smiles": "COc1ccc(C2=Nn3c(nnc3-c3ccccc3F)SC2)cc1OC1CCCC1", "AC35": 11.1}
{"smiles": "N#Cc1ccc(-c2cccs2)nc1SCc1cccnc1", "AC35": 0.671}
{"smiles": "O[Si](CCCN1CCCCC1)(c1ccc(F)cc1)C1CCCCC1", "note": "(stereo not drawn)", "AC35": 10.3}
{"smiles": "Cc1ccc(CNC(=O)c2ccc3c(=O)c(O)c(-c4ccc(C)cc4)[nH]c3c2)cc1", "AC35": 1.9}
{"smiles": "COc1ccc(C2C3=C(COC3=O)Oc3cc4c(cc32)OCO4)cc1OC", "note": "(stereo not drawn)", "AC35": 10.9}
{"smiles": "Cn1cc(C(=O)N/N=C/c2ccc3c(c2)OCO3)c2ccccc21", "AC35": 11.2}
{"smiles": "O=C(Cc1ccc(Br)cc1)NCc1ccccc1", "AC35": 5.52}
{"smiles": "Cc1ccc2[nH]c(-c3ccccc3)cc(=O)c2c1", "AC35": 5.6}
{"smiles": "COc1ccccc1CNC(=O)Nc1nc(C(N)Cc2ccc(Cl)cc2)cs1", "note": "(stereo not drawn)", "AC35": 9.79}
{"smiles": "CCOC(=O)c1ccc(-c2c(-c3cc(OC)c(OC)c(OC)c3)noc2C)cc1F", "AC35": 5.6}
{"smiles": "COc1ccc(S(=O)(=O)Nc2cc3c(cc2C(C)=O)OCO3)cc1", "AC35": 12.9}
{"smiles": "CCOc1cc(/C=N/NC(=O)N/N=C/c2ccc(O)c(OCC)c2)ccc1O", "AC35": 20}
{"smiles": "O=C(c1cccc(F)c1)N1CC[C@@H]2[C@H](CO)Nc3ccc(-c4ccccc4F)cc3[C@@H]21", "AC35": 18.1}
{"smiles": "COc1ccc(-c2ccc3oc(-c4ccc(OC)cc4)c(C#CCO)c3c2)cc1", "AC35": 3.2}
{"smiles": "CC1(S(=O)(=O)O)CC(=O)c2ccccc2C1=O", "note": "(stereo not drawn)", "AC35": 20.1}
{"smiles": "O=C(N/N=C\\c1c(O)ccc2ccccc12)c1cncc(Br)c1", "AC35": 1.18}
{"smiles": "CC(C)N1CCc2c(sc(NC(=O)c3ccc([N+](=O)[O-])o3)c2C(N)=O)C1", "AC35": 4.77}
{"smiles": "CCN1/C(=C/c2ccc3cc(C)cc(C)c3[n+]2CC)Sc2cc(C)ccc21", "AC35": 0.908}
{"smiles": "CN(C)c1ccc(-[n+]2c(-c3ccccc3)cc(-c3ccccc3)cc2-c2ccccc2)cc1", "AC35": 3.01}
{"smiles": "C[C@@H]1CCCCO[C@H](CN(C)Cc2ccc(Cl)c(Cl)c2)[C@@H](C)CN([C@@H](C)CO)C(=O)c2cc(NS(=O)(=O)c3ccc(Cl)cc3)ccc2O1", "AC35": 10.6}
{"smiles": "COc1ccc(C2=Nn3c(nnc3-c3ccccc3OC)SC2)cc1OC1CCOC1", "note": "(stereo not drawn)", "AC35": 7.54}
{"smiles": "COc1cc(C(=O)Nc2ccc3c(c2)ncn3C)cc(OC)c1OC", "AC35": 14.5}
{"smiles": "COc1ccc(OC)c(-c2cc(-c3cccnc3)nc(N)c2C#N)c1", "AC35": 10.6}
{"smiles": "O=C1CC(c2ccccc2)CC2=C1C=Nc1ccccc1N2", "note": "(stereo not drawn)", "AC35": 18.3}
{"smiles": "CCCNC(=O)c1ccc2c(=O)c(O)c(-c3cccc(Br)c3)[nH]c2c1", "AC35": 4.65}
{"smiles": "COc1cccc(S(=O)(=O)N2C[C@@H]3N[C@H](C2)C3c2ccc(-c3ccccc3F)cc2)c1", "note": "(stereo partly drawn)", "AC35": 11.3}
{"smiles": "CC(C)Cc1ccc(-c2cc3nc(NCc4cccc(Cl)c4)ccn3n2)cc1", "AC35": 11.1}
{"smiles": "C1CCC(C(CC2CCCCN2)C2CCCCC2)CC1", "note": "(stereo not drawn)", "AC35": 6.26}
{"smiles": "O=C(N/N=C/c1c(O)ccc2ccccc12)c1ccc(Br)o1", "AC35": 1.18}
{"smiles": "Cc1ccc(-c2ccc3c(c2)O[C@H](CN(C)Cc2ccccn2)[C@@H](C)CN([C@@H](C)CO)S3(=O)=O)cc1", "AC35": 16.8}
